Laboratory results reported in publication PMC5457702 (Molecular cancer therapeutics, 2017).
Read-outs that look alike come from different tables or passages of the source.

How the values were obtained:
931 cancer cell lines = test: Cancer cell line screening; assay type: cell-based; conditions: 72 h, read-out: mean IC50 across cell line panel
MM1.S cells [1] = test: Cell viability; assay type: cell-based, human; conditions: read-out: Cell growth inhibition IC50, MM1.S, 72 h
UKE-1 cells [2] = test: Cell viability; assay type: cell-based, human; conditions: read-out: Cell growth inhibition IC50, UKE-1
SAOS2 cells = test: Cell viability; assay type: cell-based, human; conditions: for IC50: read-out: Cell growth inhibition IC50, SAOS2
BRD4 = conditions: read-out: IC50(BRD4); cited from earlier work
MM1.S cells [3] = test: Flow cytometry cell cycle analysis, MM1.S; assay type: cell-based, human; conditions: 0.5 μM, 24 h
UKE-1 cells [4] = test: Development of drug resistance in UKE-1 cells; assay type: cell-based, human; conditions: two months, starting at IC20
HCC-78 cells = test: Cell viability; assay type: cell-based, human; conditions: for IC50: read-out: Cell growth inhibition IC50, HCC78
BRD4-1 [5] = molecular target: T1, BRD4-1 (Homo sapiens, UniProt O60885); test: Differential scanning fluorimetry; assay type: binding; conditions: 100 μM inhibitor, 4 μM BRD4-1; mean of 3 experiments in quadruplicate
BRD4-1 [6] = molecular target: T1, BRD4-1; test: qPCR binding assay, BRD4-1; conditions: read-out: BRD4-1 Kd, qPCR; single experiment in duplicate
[7] = system: c-MYC, p-STAT3, c-PARP levels in MM1.S cells; test: Immunoblotting of biomarkers in MM1.S; assay type: cell-based, human; conditions: 6 h drug exposure
BRDT-1 = BRDT-1 (Homo sapiens, UniProt Q58F21); test: Alpha Screen binding assay, BRDT-1; conditions: relative to BRD4

Molecule | IC50 (MM1.S cells [1]; Cell titer blue) [µM] | IC50 (UKE-1 cells [2]; 72 h, Cell titer blue) [µM] | IC50 (SAOS2 cells; 72 h, Cell titer blue) [µM] | cell cycle effect / G1 arrest (MM1.S cells [3]) | development of resistance upon prolonged exposure (UKE-1 cells [4]) | IC50 (HCC-78 cells; 72 h, Cell titer blue) [µM] | ΔTm, DSF (BRD4-1 [5]) [°C] | onset of apoptosis, c-PARP levels [7] | IC50 (MM1.S cells [1]; Homo sapiens, MM1.S) [µM] | IC50 (UKE-1 cells [2]; Homo sapiens, UKE1, 72 h) [µM] | IC50 (SAOS2 cells; Homo sapiens, SAOS-2, 72 h) [µM] | IC50 (HCC-78 cells; Homo sapiens, HCC78, 72 h) [µM] | other results
Cc1cnc(Nc2ccc(OCCN3CCCC3)cc2)nc1Nc1cccc(S(=O)(=O)NC(C)(C)C)c1 [TG101348] | – | – | – | – | – | – | – | – | – | – | – | – | IC50 (931 cancer cell lines): 10 µM
Cc1cnc(Nc2ccc(N3CCN(C)CC3)cc2)nc1Nc1cccc(S(=O)(=O)NC(C)(C)C)c1 [TG101209] | 1.4 | 0.32 | 1.5 | moderate increase of cells in G1 | readily developed resistance | 1.9 | 6.8 | – | – | – | – | – | IC50 (BRD4): […]
(+)-JQ1 | 0.1 | 0.21 | 1.5 | – | – | 2.6 | 8.8 | ineffective | – | – | – | – | maximum fraction affected, SAOS-2 (SAOS2 cells; 72 h, Hill fit): ~ 0.5; Kd (BRD4-1 [6]): 0.0091 µM; maximum fraction affected, HCC-78 (HCC-78 cells; 72 h, Hill fit): ~ 0.5; fold less active against BRDT-1 (BRDT-1): 7 fold
CC(C)(C)c1cc(NC(=O)Nc2ccc(-c3cn4c(n3)sc3cc(OCCN5CCOCC5)ccc34)cc2)no1 [Quizartinib] | – | – | – | only slightly affected | – | – | – | – | > 10 | 9.5 | > 10 | > 10 | –
N#CC[C@H](C1CCCC1)n1cc(-c2ncnc3[nH]ccc23)cn1 [Ruxolitinib] | – | – | – | only slightly affected | readily developed resistance | – | – | ineffective | > 10 | 0.17 | > 10 | > 10 | –
